Tests used:
LasR = experiment: microbe, parasite or virus in culture; type: cell-based; conditions: Pseudomonas aeruginosa, read-out: concentration that stimulates half-maximal activity
Procedure: Positive clones were tested in a Pseudomonas aeruginosa bioassay. PAC-JP2 (bearing the lasI/rhII double deletion) produces no PAI-1 but retains the ability to produce LasR. When PAI-1 is added exogenously, it can bind to LasR and induce the transcription of lasI. Test samples containing 40 nM PAI-1 (the concentration that stimulates half-maximal activity in this assay) were preincubated at 37° C. with anti-PAI-1 monoclonal antibody (618.4). Control samples containing 40 nm PAI-1 were preincubated at 37° C. with an equal volume of PBS. Following preincubation, the samples were tested in a Pseudomonas aeruginosa bioassay using PAO-JP2 containing a plasmid with a lasI/LacZ fusion. When the bacteria reached on OD600 of 0.8-1.0, the samples were assayed for the production of β-galactosidase, which was expressed as Miller Units of activity.

[1] = tested on: lasI/lasZ transcriptional fusion (lasR); conditions: λI14-MG4 (pPCS1), Seed et al., 1995, cited from earlier work
lymphocytes = conditions: in vivo (so in the source); Telford et al., 1998; cited from earlier work
[2] = tested on: tumor necrosis factor and interleukin-12; conditions: Telford et al., 1998; cited from earlier work

CCCCCCCCCC(=O)CC(=O)NC1CCOC1=O [PAI-1, N-(3-oxo)-dodecanoyl-L-homoserine lactone]
EC50 (LasR): 0.04 µM | lowest PAI-1 concentration that activates the construct [1]: 10 pM | EC50 ([1]; read-out: PAI-1 concentration for half-maximal expression): 0.0001 µM | effect on proliferation of lymphocytes (lymphocytes): inhibit the proliferation of lymphocytes | effect on expression of tumor necrosis factor and interleukin-12 [2]: downregulates expression
